The numbers were not newly measured in publication PMC12308805, “Ultrahigh-Throughput Virtual Screening Strategies against PPI Targets: A Case Study of STAT Inhibitors” (Journal of Chemical Information and Modeling, 2025), which cites them from elsewhere.

Square brackets hold non-standard residues; d marks the D form. Peptide text beside a SMILES is read from it. * marks the point of attachment. Isobutyryl = CC(C)C(=O)*

The data set deals with STAT3. Particulars: sheet 6QHD_actives_decoys, retrospective screening set for STAT3 SH2 domain (PDB 6QHD); decoys are presumed inactives, not tested; ref DUD-E; cited from earlier work.
As for `C/C(=C(/CCO)SS/C(CCO)=C(\C)N(C=O)Cc1cnc(C)nc1N)N(C=O)Cc1cnc(C)nc1N` [Decoy780], the Type result is “Inactive (Decoy)”.

`C/C(=C(\CCO)SS/C(CCO)=C(\C)N(C=O)Cc1cnc(C)nc1N)N(C=O)Cc1cnc(C)nc1N` [Decoy781]: the Type entry was “Inactive (Decoy)”.

For `C[C@H](O)C[C@H](O)[C@@H](SC[C@@H](O)C(=O)O)[C@@H](O)/C=C/Cc1cc2c(Cl)c(O)cc(O)c2c(=O)o1` [Decoy782], the Type result is listed as “Inactive (Decoy)”.

Consider `CC(=O)c1cccc(S(=O)(=O)NCCC(=O)Nc2ccc(S(=O)(=O)/N=C3\CCCCCN3)cc2)c1` [Decoy783], for which the Type entry was “Inactive (Decoy)”.

Consider `Cc1ccc(OCC(=O)NNC(=O)CCCCC(=O)NNC(=O)COc2ccc(C)cc2Br)c(Br)c1` [Decoy784], for which the Type entry is “Inactive (Decoy)”.

On to `CC(/C=C/C=C(\C)C(=O)O)=C\C=C\C=C(C)\C=C\C=C(/C)C(=O)O[C@@H]1O[C@H](CO[C@@H]2O[C@H](CO)[C@@H](O)[C@H](O)[C@H]2O)[C@@H](O)[C@H](O)[C@H]1O` [Decoy785], for which the Type result was “Inactive (Decoy)”.

As to `COc1cc(/C=N/N=C2\NC(=O)[C@H](CC(=O)O)S2)cc(Br)c1OS(=O)(=O)c1ccc(NC(C)=O)cc1` [Decoy786], the Type result was “Inactive (Decoy)”.

As to `COc1cc(/C=N/NC(=O)CSc2nnc(-c3cccc([N+](=O)[O-])c3)n2N)c([N+](=O)[O-])cc1O` [Decoy787], the Type entry is “Inactive (Decoy)”.

As for `Cc1nn(C)cc1CN1CCN(C(=S)Nc2ccc(S(=O)(=O)Nc3ncccn3)cc2)CC1` [Decoy788], the Type result is given as “Inactive (Decoy)”.

For `CCOC(=O)c1ccc(NC(=O)CSc2nnc(CNC(=O)c3ccco3)n2-c2ccc(OCC)cc2)cc1` [Decoy789], the Type result was “Inactive (Decoy)”.

Regarding `C=CCOc1ccc([C@H]2C(C(=O)c3ccc(S(=O)(=O)N(C)C)cc3)=C(O)C(=O)N2CCCN(C)C)cc1OC` [Decoy790], the Type result is reported as “Inactive (Decoy)”.

Take `OC[C@@H](O)[C@H](O[C@@H]1O[C@H](CO)[C@@H](O)[C@H](O)[C@H]1O)[C@@H](O)C(/C=N/Nc1ccccc1)=N/Nc1ccccc1` [Decoy791]: the Type result is recorded as “Inactive (Decoy)”.

As for `CCOC(=O)N[C@@](Nc1ccc(S(=O)(=O)Nc2ncccn2)cc1)(C(=O)OCC)C(F)(F)F` [Decoy792], the Type result was “Inactive (Decoy)”.

As to `Nc1nnc(S(=O)(=O)N[C@]2(C(F)(F)F)C(=O)N=C3C2=C(O)NC(=O)N3Cc2cccnc2)s1` [Decoy794], the Type result is given as “Inactive (Decoy)”.

Consider `O=c1cc(-c2ccc(O)c(O)c2)oc2cc(O[C@@H]3O[C@H](CO[C@@H]4OC[C@@H](O)[C@@H](O)[C@H]4O)[C@@H](O)[C@H](O)[C@H]3O)cc(O)c12` [Decoy795], for which the Type entry was “Inactive (Decoy)”.

Consider `CCOc1ccc(-n2c(Cc3cc(=O)[nH]c(=O)[nH]3)nnc2SCC(=O)Nc2ccc(F)cc2)cc1` [Decoy796], for which the Type result is recorded as “Inactive (Decoy)”.

As to `CCCCSc1nnc(/N=C(\O)CSc2n[nH]c(N/N=C/c3c(C)nn(C(C)C)c3C)n2)s1` [Decoy797], the Type result is reported as “Inactive (Decoy)”.

In the case of `CCOc1cccc(/C=N/NC(=O)CSc2nnc(-c3cc(OC)c(OC)c(OC)c3)n2-c2ccccc2)c1O` [Decoy798], the Type result was “Inactive (Decoy)”.

Take `CCOc1ccc2[nH]c(=O)c(CN(CCc3ccc(OC)c(OC)c3)Cc3nnnn3C3CCCC3)cc2c1` [Decoy799]: the Type result is given as “Inactive (Decoy)”.

On to `COc1cc(C(=O)OC[C@]2(O)CO[C@H](OC[C@@H]3O[C@@H](Oc4c(OC)cc(CO)cc4OC)[C@H](O)[C@H](O)[C@@H]3O)[C@@H]2O)cc(OC)c1O` [Decoy800], for which the Type entry is on record as “Inactive (Decoy)”.

In the case of `Cc1nnc(CSc2nnc(NC(=O)CSc3n[nH]c(N/N=C/c4ccncc4)n3)s2)o1` [Decoy801], the Type result was “Inactive (Decoy)”.

With `CCN1C[C@]2(COC)[C@H](O)C[C@H](OC)[C@@]34[C@@H]2[C@@H](OC)[C@@H]([C@@H]13)[C@]1(OC(C)=O)[C@H]2[C@@H](OC(=O)c3ccccc3)[C@](O)(C[C@]24O)[C@@H](OC)[C@@H]1O` [Decoy802], the Type result was “Inactive (Decoy)”.

As to `CCSc1nnc(NC(=O)CSc2n[nH]c(N/N=C/c3ccc(F)cc3)n2)s1` [Decoy803], the Type entry is reported as “Inactive (Decoy)”.

Take `CNC(=O)[C@H](CC(C)C)NC(=O)[C@H](Cc1c[nH]cn1)NC(=O)[C@@H](C)NC(=O)[C@@H](NC(=O)[C@H](C)NC(=O)[C@H](Cc1c[nH]c2ccccc12)NC(=O)[C@H](Cc1c[nH]cn1)NC(=O)C(C)C)C(C)C` [Decoy804] (Isobutyryl-HWAV[dA]HL-NHMe): the Type result is “Inactive (Decoy)”.

Regarding `CNC(=O)[C@H](CC(C)C)NC(=O)[C@H](Cc1c[nH]cn1)NC(=O)[C@@H](C)NC(=O)[C@@H](NC(=O)[C@H](C)NC(=O)[C@H](Cc1c[nH]c2ccccc12)NC(=O)[C@H](Cc1cnc[nH]1)NC(=O)C(C)C)C(C)C` [Decoy805] (Isobutyryl-HWAV[dA]HL-NHMe), the Type entry is reported as “Inactive (Decoy)”.

For `CNC(=O)[C@H](CC(C)C)NC(=O)[C@H](Cc1cnc[nH]1)NC(=O)[C@@H](C)NC(=O)[C@@H](NC(=O)[C@H](C)NC(=O)[C@H](Cc1c[nH]c2ccccc12)NC(=O)[C@H](Cc1cnc[nH]1)NC(=O)C(C)C)C(C)C` [Decoy806] (Isobutyryl-HWAV[dA]HL-NHMe), the Type entry was “Inactive (Decoy)”.

As for `COC(=O)c1sc2cc(SCC(=O)Nc3cc(OC)c(OC)c(OC)c3)ccc2c1/N=C(\O)C(F)(F)F` [Decoy807], the Type entry was “Inactive (Decoy)”.

In the case of `COCCNC(=O)[C@@H](c1ccc(F)cc1)N(C(=O)c1snc(C(N)=O)c1N)c1ccc2c(c1)OCO2` [Decoy808], the Type result is “Inactive (Decoy)”.

Turning to `CC(=O)Nc1ccc(S(=O)(=O)NCCCCNc2ccc([N+](=O)[O-])c3cccnc23)cc1` [Decoy809], the Type entry is recorded as “Inactive (Decoy)”.

`COC(=O)Cc1c(C(=O)OC)sc(NC(=O)CSc2nc(C(C)(C)C)n[nH]2)c1C(=O)OC` [Decoy810]: the Type result is given as “Inactive (Decoy)”.

As for `Cc1nnc(/N=C(\O)CSc2nnc(NN=C(Cc3ccccc3)Cc3ccccc3)n2N)s1` [Decoy811], the Type result is given as “Inactive (Decoy)”.

Consider `CC(O)(O)C(=O)OCC(C)(COC(=O)C(C)(O)O)C(=O)OCC(C)(COC(=O)C(C)(COC(=O)C(C)(O)O)COC(=O)C(C)(O)O)C(=O)OCCS` [Decoy812], for which the Type entry is recorded as “Inactive (Decoy)”.

As for `CCCCNC(=O)[C@@H](c1cc([N+](=O)[O-])ccc1Cl)N(Cc1ccc(C)o1)C(=O)c1ccccc1O` [Decoy813], the Type result is “Inactive (Decoy)”.

Turning to `CSCC[C@@H](NC(=O)[C@H](N)Cc1ccc(O)cc1)C(=O)N[C@H](Cc1ccccc1)C(=O)N[C@H](Cc1c[nH]cn1)C(=O)N[C@@H](CC(C)C)C(=O)N[C@H](CCSC)C(=O)N[C@@H](CC(=O)O)C(N)=O` [Decoy814] (H-[dY][dM][dF][dH]L[dM]D-NH2), the Type result is “Inactive (Decoy)”.

Regarding `COc1cc(/C=C/C(=O)OC[C@H]2O[C@H](O[C@]3(CO)O[C@H](CO)[C@@H](O)[C@@H]3O)[C@H](O)[C@@H](O)[C@@H]2O)cc(OC)c1O` [Decoy815], the Type entry is on record as “Inactive (Decoy)”.

Turning to `COc1cc(C[C@@]2(O)CO[C@H](c3ccc(O[C@@H]4O[C@H](CO)[C@@H](O)[C@H](O)[C@H]4O)c(OC)c3)[C@H]2CO)ccc1O` [Decoy816], the Type result was “Inactive (Decoy)”.
